Usually IC50 stands for the concentration needed to halve the response being measured.

For this test, the target named is T1, human calpain I (Homo sapiens, UniProt P07384).
T1 construct: The isolation of calpain from human erythrocytes was similar to that described by Wang et al. (1988); from tissue; host or cells: human red blood cells (packed red cells, American Red Cross); partially purified on DEAE-Sephacel and phenyl-Sepharose CL-4B
T1 sequence (P07384 1-714): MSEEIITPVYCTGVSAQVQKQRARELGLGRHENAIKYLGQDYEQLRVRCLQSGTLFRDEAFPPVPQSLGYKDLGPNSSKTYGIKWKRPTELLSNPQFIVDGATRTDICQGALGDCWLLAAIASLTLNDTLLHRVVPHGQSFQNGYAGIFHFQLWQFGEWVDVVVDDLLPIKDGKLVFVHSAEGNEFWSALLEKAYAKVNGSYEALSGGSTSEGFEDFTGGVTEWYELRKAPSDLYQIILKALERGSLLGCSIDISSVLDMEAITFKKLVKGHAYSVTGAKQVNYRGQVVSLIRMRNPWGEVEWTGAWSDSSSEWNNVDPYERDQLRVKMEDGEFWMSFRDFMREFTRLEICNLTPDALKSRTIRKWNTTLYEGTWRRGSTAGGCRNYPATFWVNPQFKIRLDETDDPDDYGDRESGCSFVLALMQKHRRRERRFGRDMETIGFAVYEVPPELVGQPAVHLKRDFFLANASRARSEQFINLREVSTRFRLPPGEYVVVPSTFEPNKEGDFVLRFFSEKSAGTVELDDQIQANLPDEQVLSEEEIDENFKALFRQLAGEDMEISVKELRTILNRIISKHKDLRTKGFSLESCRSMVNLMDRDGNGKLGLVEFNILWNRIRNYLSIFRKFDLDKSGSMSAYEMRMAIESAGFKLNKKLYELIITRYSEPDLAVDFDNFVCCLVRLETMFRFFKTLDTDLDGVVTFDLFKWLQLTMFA
T1 sequence (P04632 1-268 partner): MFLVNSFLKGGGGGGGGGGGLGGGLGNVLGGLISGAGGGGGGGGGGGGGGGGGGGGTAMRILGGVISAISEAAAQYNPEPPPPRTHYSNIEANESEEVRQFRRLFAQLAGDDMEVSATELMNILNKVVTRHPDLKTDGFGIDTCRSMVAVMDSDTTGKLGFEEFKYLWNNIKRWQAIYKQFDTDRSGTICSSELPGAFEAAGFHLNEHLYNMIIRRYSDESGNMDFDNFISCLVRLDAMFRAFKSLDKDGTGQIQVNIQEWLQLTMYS
As to the kind of experiment: Calpain I Inhibition Assay (3H-acetyl casein degradation). Type of test: biochemical. The note with it: human erythrocyte calpain I; 3H-acetyl Casein substrate; 25° C., 2 hours incubation; read-out: IC50 against human calpain I. Here is the method:
Compounds of the present invention were tested for calpain I inhibition activity using the following assay method.
Calpain I InhibitionAssay
Isolation of Human erythrocyte Calpain I
Human red blood cells were obtained from the Northeastern New York Chapter of the American Red Cross. The isolation of calpain from human erythrocytes was similar to that described by Wang et al. (1988). One unit of in-dated packed red cells was diluted with an equal volume of diluting/wash solution and centrifuged. The supernatant was removed and the procedure was repeated. The washed cells were pooled, lysed with 700 mL of lysing solution and centrifuged to remove cell debris. The membrane-free hemolysate was added to 500 mL DEAE-sephacel and the slurry was stirred gently at 4° C. for 1 hour.
Batch elution was done using DEAE-sephacel wash solution to remove a large amount of unwanted protein, most of which was hemoglobin. The slurry was poured into a column connected in tandem to a phenyl-sepharose CL-4B column. Material eluted from the DEAE-sephacel was applied directly to the phenyl-sepharose CL-4B. The phenyl-sepharose CL-4B column was washed first with 75 mM NaCl and then with no salt. Calpain begins to disassociate from the […] with the 75 mM NaCl but the majority should adhere to the column until the salt is removed. Fractions were collected (20 mL), assayed for caseinolytic activity with and without calpastatin and pooled accordingly. The pooled fractions were concentrated using an Amicon stirred cell equipped with a YK-10 membrane. Calpain was stored at 4° C. with 10 mM EDTA and 5 mM 2-mercaptoethanol and is stable for at least 6 months.
The tritated assay is a modification of that described by Gopalakrishna, R. and Barsky, S.H., Anal. Biochem., 148, 413,1985. All reagents, compound 25 ul, HEPES buffer 25 ul, CaCl2 50 ul, enzyme 50 ul, and ^3 H-acetyl Casein, were combined in 1 mL polystyrene titer plates. The plates were preincubated at 25° C. for 5 min with gentle shaking prior to the addition of substrate. The incubation was continued for an additional 2 hours and was terminated with the addition of 0.5 mL ice cold 5% TCA. Unlabled casein was added, samples were centrifuged and 0.5 mL of the supernatant was counted in 5 mL of Ready Protein liquid scintillation cocktail for 2 min. This assay measures ^3 H-acetyl Casein degradation as an endpoint for calpain activity.
Take `NC(=O)c1cn(-c2ccc(O)cc2Cl)c2cc(-c3ccnnc3)ccc2c1=O` [Example 12, 1,4-Dihydro-1-(2-chloro-4-hydroxyphenyl)-4-oxo-7-(4-pyridazinyl)-3-quinolinecarboxamide]: the IC50 is 1700 nM.

`NC(=O)c1cn(-c2ccc(O)cc2Cl)c2cc(-c3cc[nH]n3)ccc2c1=O` [Example 13, 1,4-Dihydro-1-(2-chloro-4-hydroxyphenyl)-4-oxo-7-(3-pyrazolyl)-3-quinolinecarboxamide]: the IC50 worked out at 570 nM.

For the compound `NC(=O)c1cn(-c2ccc(O)cc2Cl)c2cc(-c3cccnc3)ccc2c1=O` [Example 9, 1,4,Dihydro-1-(2-chloro-4-hydroxyphenyl)-4-oxo-7-(3-pyridinyl)-3-quinolinecarboxamide], the IC50 turned out to be 12000 nM. Consider `NC(=O)c1cn(-c2ccc(O)cc2C(F)(F)F)c2cc(-c3ccncc3)ccc2c1=O` [Example 7, 1,4-Dihydro-1-(2-trifluoromethyl-4-hydroxyphenyl)-4-oxo-7-(4-pyridinyl)-3-quinolinecarboxamide], for which the IC50 worked out at 16000 nM. In the case of `NC(=O)c1cn(-c2ccc(O)c(Cl)c2)c2cc(-c3ccncc3)ccc2c1=O` [Example 3, 1,4-Dihydro-1-(3-chloro-4-hydroxyphenyl)-4-oxo-7-(4-pyridinyl)-3-quinolinecarboxamide] it was 2000 nM.

Regarding `NC(=O)c1cn(-c2ccc(O)c(F)c2)c2cc(-c3ccncc3)ccc2c1=O` [Example 5, 1,4-Dihydro-1-(3-fluoro-4-hydroxyphenyl)-4-oxo-7-(4-pyridinyl)-3-quinolinecarboxamide], the IC50 was 5000 nM.

In the case of `NC(=O)c1cn(-c2ccc(O)cc2)c2cc(-c3ccncc3)ccc2c1=O` [Example 1, 1,4-Dihydro-1-(4-hydroxyphenyl)-4-oxo-7-(4-pyridinyl)=3-quinolinecarboxamide], the IC50 turned out to be 2000 nM. In the case of `Cc1cc(O)ccc1-n1cc(C(N)=O)c(=O)c2ccc(-c3ccncc3)cc21` [Example 6, 1,4-Dihydro-1-(2-methyl-4-hydroxyphenyl)-4-oxo-7-(4-pyridinyl)-3-quinolinecarboxamide] it was 510 nM. Take `NC(=O)c1cn(-c2ccc(O)cc2F)c2cc(-c3ccncc3)ccc2c1=O` [Example 4, 1,4-Dihydro-1-(2-fluoro-4-hydroxyphenyl)-4-oxo-7-(4-pyridinyl)-3-quinolinecarboxamide]: the IC50 amounted to 7400 nM. With `NC(=O)c1cn(-c2ccc(O)cc2Cl)c2cc(-c3ccncc3Cl)ccc2c1=O` [Example 11], the IC50 is 1700 nM. Turning to `NC(=O)c1cn(-c2ccc(O)cc2Cl)c2cc(-c3ccncc3)ccc2c1=O` [Example 8, 1,4-Dihydro-1-(2-chloro-4-hydroxyphenyl)-4-oxo-7-(4-pyridinyl)-3-quinolinecarboxamide], the IC50 stood at 600 nM. In the case of `NC(=O)c1cn(-c2ccc(O)cc2Cl)c2cc(-c3ccoc3)ccc2c1=O` [Example 10, 1,4-Dihydro-1-(2-chloro-4-hydroxyphenyl)-4-oxo-7-(3-furyl)-3-quinolinecarboxamide] it was 1700 nM; in that of `NC(=O)c1cn(-c2ccc(O)c(O)c2)c2cc(-c3ccncc3)ccc2c1=O` [Example 2, 1,4,Dihydro-1-(3.4-dihydroxyphenyl)-4-oxo-7-(4-pyridinyl),3-quinolinecarboxamide], 7000 nM.

Values taken from patent US5622967A, “Quinolone carboxamide Calpain inhibitors” (Sterling Winthrop, Inc., priority 1995, dated 1997).
